Laboratory results taken from US7666644B2, “Glyphosate-N-acetyltransferase (GAT) genes” (Verdia, Inc., priority 2004, dated 2010).

Assays:
[1] = tested on: Nicotiana tabacum L. Xanthi leaf explants; assay: Tobacco shoot regeneration with glyphosate selection after Agrobacterium-mediated transformation; assay type: cell-based; settings: explants lacking a GAT gene
Excerpt: Agrobacterium-mediated transformation of plant cells occurs at low efficiencies. To allow propagation of transformed cells while inhibiting proliferation of non-transformed cells, a selectable marker is needed. Antibiotic markers for kanamycin and hygromycin and the herbicide modifying gene bar, which detoxifies the herbicidal compound phosphinothricin, are examples of selectable markers used in plants (Methods in Molecular Biology, 1995, 49:9-18). […] An evolved GAT gene (0—5B8), SEQ ID NO:190, was cloned between a plant promoter (enhanced strawberry vein banded virus) and a […] terminator and introduced into the T-DNA region of the binary vector pMAXY3793 suitable for transformation of plant cells via Agrobacterium tumefaciens EHA105 as shown in FIG. 12. A screenable GUS marker was present in the T-DNA to allow confirmation of transformation. Transgenic tobacco shoots were generated using glyphosate as the only selecting agent.
Axillary buds of Nicotiana tabacum L. Xanthi were subcultured on half-strength MS medium with sucrose (1.5%) and Gelrite (0.3%) under 16-h light (35-42 μEinsteins m^−2 s^−1, cool white fluorescent lamps) at 24° C. every 2-3 weeks. Young leaves were excised from plants after 2-3 weeks subculture and were cut into 3×3 mm segments. A. tumefaciens EHA 105 was inoculated into LB medium and grown overnight to a density of A600=1.0. […]

[2] = target: T1, Bacillus licheniformis strain B6 glyphosate-N-acetyltransferase (GAT), native, SEQ ID NO:7 (Bacillus paralicheniformis, UniProt A0AAW6KBE1); assay: Apparent KM and kcat of purified GAT (Example 2); assay type: biochemical
T1 construct: untagged
Experimental: Lysis of the cells was effected by the addition of 1 ml of the following buffer to 0.2 g of cells: 25 mM HEPES, pH 7.3, 100 mM KCl and 10% methanol (HKM) plus 0.1 mM EDTA, 1 mM DTT, 1 mg/ml chicken egg lysozyme, and a protease inhibitor cocktail obtained from Sigma and used according to the manufacturer's recommendations. After 20 minutes incubation at room temperature (e.g., 22-25° C.), lysis was completed with brief sonication. The lysate was centrifuged and the supernatant was desalted by passage through Sephadex G25 equilibrated with HKM. Partial purification was obtained by affinity chromatography on CoA Agarose (Sigma). The column was equilibrated with HKM and the clarified extract was allowed to pass through under hydrostatic pressure.
Purification to homogeneity was obtained by gel filtration of the partially purified protein through Superdex 75 (Pharmacia).
Initial reaction rates were determined using mass spectrometric detection of N-acetyl glyphosate. Five μl were repeatedly injected into the instrument and reaction rates were obtained by plotting reaction time vs area of the integrated peak (FIG. 6).

[3] = tested on: native or low activity GAT enzymes (glyphosate-N-acetyltransferase); assay: Kinetics typical of native or low activity GAT enzymes (Example 4); assay type: biochemical
[4] = tested on: high activity GAT enzymes (glyphosate-N-acetyltransferase); assay: Kinetics typical of high activity GAT enzymes (Example 5); assay type: biochemical
[5] = tested on: GAT polypeptide (glyphosate-N-acetyltransferase), SEQ ID NO:445; assay: Standard spectrophotometric kcat and KM determination (Example 7); assay type: biochemical; settings: 20 mM HEPES pH 6.8, 10% ethylene glycol, 0.2 mM acetyl CoA, about 23° C.
Experimental: (§1) KM was calculated from the initial reaction rates obtained from concentrations of glyphosate ranging from 0.125 to 10 mM, using the Lineweaver-Burke transformation of the Michaelis-Menten equation. kcat/KM was determined by dividing the value determined for kcat by the value determined for KM.

[6] = tested on: GAT 20-30C6 (SEQ ID NO: 683) variant D34A; assay: GAT kinetics, 0 KCl, Bradford (Example 20, Table 12); assay type: biochemical; settings: Bradford protein assay
Experimental: as §1
(§2) The amino acids aspartic acid (Asp, D), histidine (His, H) and cysteine (Cys, C) are known to be associated with the active sites of various acetyltransferase enzymes. To determine if any such residues play a role in GAT activity, all D, C, and H residues of GAT20-30C6 (SEQ ID NO:683) were individually mutated to alanine (Ala, A) and the mutated enzymes assayed for N-acetylglyphosate activity.

[7] = tested on: GAT 20-30C6 (SEQ ID NO: 683) variant H138A; assay: as above; assay type: biochemical; settings: Bradford protein assay
Experimental: as §1, §2

[8] = tested on: GAT 20-30C6 (SEQ ID NO: 683) variant H138R; assay: as above; assay type: biochemical; settings: Bradford protein assay
Experimental: as §1, §2

[9] = tested on: GAT 20-30C6 (SEQ ID NO: 683) variant H41A; assay: as above; assay type: biochemical; settings: Bradford protein assay
Experimental: as §1, §2

[10] = tested on: GAT 20-30C6 (evolved glyphosate-N-acetyltransferase), SEQ ID NO: 683; assay: as above; assay type: biochemical; settings: Bradford protein assay
Experimental: as §1, §2

[11] = tested on: GAT 20-30C6 (SEQ ID NO: 683) variant H138S; assay: as above; assay type: biochemical; settings: Bradford protein assay
[12] = GAT activity of native YitI; assay type: biochemical
[13] = Transfer of the propionyl group from propionyl CoA to glyphosate, DTNB detection; assay type: biochemical; settings: 1 mM propionyl CoA, 5 mM glyphosate or no glyphosate, 30 minutes
Experimental: The ability of GAT variants (B6 (SEQ ID NO:7), 0—6D10 (SEQ ID NO:448), 17-15H3 (SEQ ID NO:601), and 20-8H12c (SEQ ID NO:817)) to transfer the propionyl group from propionyl CoA to glyphosate was tested in reaction mixtures containing 5 mM glyphosate or no glyphosate. Propionyl CoA was present at 1 mM. After 30 minutes the reactions were terminated and the presence of free […] was determined by the addition of DTNB.

[14] = GAT activity with substrate phospho-L-serine (DTNB); assay type: biochemical
Experimental: (§3) GAT activity of several GAT polypeptides of the present invention was evaluated with respect to a number of amino acid substrates. The GAT polypeptide, AcCoA and amino substrate were incubated in 25 mM Hepes, pH 6.8, 10% ethylene glycol in the wells of a 96-well polystyrene plate. After 30 minutes, the reactions were stopped by the addition of 30 μl of 10 mM 5,5′-dithiobis-2-nitrobenzoate (DTNB) in 500 mM Tris, pH 7.5. After 2 minutes, absorbance was read at 412 nm in a Spectramax Plus plate reader (Molecular Devices, Sunnyvale, Calif.).

maize plants = assay: Effect of temperature variation on glyphosate tolerance of T1 maize expressing GAT transgenes; assay type: in vivo; settings: cool/cold, warm and hot conditions, 0×, 4×, 6×, 8× glyphosate at V2, scored 5 and 14 days
Experimental: Maize plants expressing GAT variant transgenes 10—4F2 (SEQ ID NO:203), 17-15H3 (SEQ ID NO:549), and 18-28D9b (SEQ ID NO:814) were produced using the methods described in Example 13. The effect of temperature on glyphosate tolerance was evaluated in T1 plants. The T1 plants were grown in cool/cold (day 14° C., night 8° C.), warm (day 28° C., night 20° C.), and hot (day 37° C., night 20° C.) conditions. T1 plants were sprayed at V2 with four different glyphosate spray treatments (0×, 4×, 6×, and 8×). Plants were scored at 5 and 14 days after treatment for leaf discoloration and plant height comparisons as described in Example 13.

[15] = assay type: physicochemical; settings: buffer, pH 7.2
Experimental: The half lives of several GAT polypeptides were also measured at 37.5° C. according to the following procedure. GAT polypeptides 401 (SEQ ID NO: 6), 17-15H3 (SEQ ID NO: 601), 20-8H12 (SEQ ID NO: 739), 22-13B12 (SEQ ID NO: 781), 22-15B4 (SEQ ID NO: 946) and 22-18C5 (SEQ ID NO: 795) were incubated in a matrix of 25 mM Hepes, pH 7.2, 10 mM KCl and 10% methanol (“HKM”). At various timepoints, aliquots were withdrawn and assayed in triplicate at 22° C. using the continuous spectrophotometric assay described in Example 7 using saturating concentrations of glyphosate (20 mM for 401, 5 mM for the rest) and AcCoA (167 uM). The standard error at each time point averaged about 2.9%. GAT activity was plotted as a function of incubation time and the data was fitted to a curve for exponential decay (y=e^−x), where y is enzyme activity and x is time in hours, from which half life was calculated.

[16] = GAT activity with substrate glyphosate (amino acid substrate study, DTNB); assay type: biochemical; settings: Substrate Glyph, relative to 401
Experimental: as §3

[17] = GAT activity with substrate L-aspartate (DTNB); assay type: biochemical; settings: for kcat/KM % of glyph: Substrate Aspartate
Experimental: as §3

[18] = GAT activity with substrate L-serine (DTNB); assay type: biochemical; settings: for kcat/KM % of glyph: Substrate Serine
Experimental: as §3

[19] = Kinetics of D, C, H residue mutants of GAT20-30C6; assay type: biochemical; settings: 0 KCl; Bradford protein assay
Excerpt: as §2

With `O=C(O)CNCP(=O)(O)O` [Glyphosate, N-phosphonomethylglycine] the “Glyphosate concentrations that completely inhibited any shoot formation” value [1] was “greater than 20 uM”.

With `O=C(O)CNCP(=O)(O)O` [glyphosate, N-phosphonomethylglycine] the kcat ([2]; from Vmax at known enzyme concentration, 5 mM glyphosate, varying Acetyl CoA) was 0.1 s⁻¹, the Km ([2]; read-out: KM for glyphosate, apparent, saturating (200 μM) Acetyl CoA, 5 mM morpholine pH 7.7, 20% ethylene glycol) was 2900 ± 200 µM and the kcat [3] was “approximately 1 min^−1”. For the same molecule, the Km ([3]; read-out: KM for glyphosate) was 1500 to 10000 µM, the Km [4] was less than 100 µM and the kcat [4] was “up to 400 min^−1”. It also gave a Km [5] of 500 µM, a kcat [5] of 5.37 s⁻¹ and a Km [6] of 2330 µM. It also gave a kcat [6] of 2.12 s⁻¹, a kcat [7] of less than 0.00033 s⁻¹ and a Km [8] of 17800 µM. The kcat [8] was 0.738 s⁻¹, the Km [9] was 4800 µM and the kcat [9] was 3.47 s⁻¹. For the same molecule, the Km [10] was 182 µM, the kcat [10] was 6.43 s⁻¹ and the Km [11] was 7100 µM. It also gave a kcat [11] of 0.0892 s⁻¹.

B1: YitI: most closely related sequence available in Genbank, yitI from Bacillus subtilis (protein, UniProt O06744 1-149, looked up)
Uncharacterized …: MLEVKTISVEDTYEIRHRILRPHQSIEQCKYKEDHAEGSFHLGVFYDGTLISIASFSPQSQPLLTEASAYRLRGMATLEGYRDQKAGSTLIKHAEHKLAESGVQAVWCNARHHVKGYYAKLGWKELGEPFDIPGIGNHIVMYKTLRTSR
In the case of B1, the GAT activity [12] is reported as “detectable GAT activity”.

B2: B6: native GAT enzyme isolated from B. licheniformis strain B6, SEQ ID NO:7 (protein)
chain: MIEVKPINAEDTYEIRHRILRPNQPLEACKYETDLLGGTFHLGGYYRDRLISIASFHQAEHSELEGQKQYQLRGMATLEGYREQKAGSTLIRHAEELLRKKGADLLWCNARTSVSGYYKKLGFSEQGGVYDIPPIGPHILMYKKLT
modifications: Unidentified microorganism derived from soil sample.; B6 GAT
With B2 the “glyphosate-dependent hydrolysis of propionyl CoA” value [13] was “showed glyphosate-dependent hydrolysis of propionyl CoA” and the “activity with phospho-L-serine compared with glyphosate” value [14] was “about 2 times”.

B3: 17-15H3: evolved GAT; polypeptide SEQ ID NO:601, transgene SEQ ID NO:549 (protein)
chain: MIEVKPINAEDTYELRHRILRPNQPIEACMFESDLLRGAFHLGGYYGGKLISIASFHQAEHSELQGQKQYQLRGMATLEGYREQKAGSSLIKHAEEILRKRGADLLWCNARTSASGYYKKLGFSEQGEVFDTPPVGPHILMYKRIT
modifications: D_S00260796_17-15H3
For B3, the “glyphosate-dependent hydrolysis of propionyl CoA” value [13] was “showed glyphosate-dependent hydrolysis of propionyl CoA”, the “effect of growth temperature on glyphosate tolerance” value (maize plants) was “not adversely effected” and the “Half-life” value [15] was 45 h. The “kcat/KM Fold imp.” value [16] was 1086 fold, the “increase in activity with aspartate compared to native GAT polypeptide” value [17] was 40 fold and the “kcat/KM % of glyph” value [17] was 3.24%. For the same molecule, the “activity with respect to serine and phosphoserine compared to native GAT polypeptide” value [18] was “loss of activity” and the “kcat/KM % of glyph” value [18] was 0.0882%.

B4: 25-8H7: further evolved GAT enzyme, SEQ ID NO:907; gene GAT25-8H7/4618 SEQ ID NO:906 (protein)
chain: MIEVKPINAEDTYDLRHRVLRPNQPIEACMFESDLTRSAFHLGGFYGGKLISVASFHQAEHSELQGKKQYQLRGVATLEGYREQKAGSSLVKHAEEILRKRGADMIWCNARTSASGYYRKLGFSEQGEVFDTPPVGPHILMYKRIT
modifications: 25-8H7
In the case of B4, the “kcat/KM Fold imp.” value [16] is reported as 7031 fold, the “increase in activity with aspartate compared to native GAT polypeptide” value [17] is reported as 40 fold and the “kcat/KM % of glyph” value [17] is reported as 0.520%. The “activity with respect to serine and phosphoserine compared to native GAT polypeptide” value [18] was “loss of activity” and the “kcat/KM % of glyph” value [18] was 0.00855%.

B5: 20-30C6: evolved GAT enzyme, SEQ ID NO:683 (protein)
chain: MIEVKPINAEDTYELRHRVLRPNQPIEACMFESDLLRGAFHLGGFYGGKLISVASFHQAEHTELQGQKQYQLRGVATLEGYREQKAGSSLVKHAEEILRKRGADILWCNARTSASGYYKKLGFSEQGEVFDTPPVGPHILMYKRIT
modifications: D_GE002283_GAT20-30C6
With B5 the “% kcat/Km of 20-30C6” value [19] was 100%.
